What was measured:
human KDELR1 D50N/E117Q = molecular target: T1, human KDELR1 D50N/E117Q (Homo sapiens, UniProt P24390, D50N/E117Q); test: ER retrieval assay, KDELR1 D50N/E117Q-GFP; assay type: cell-based; settings: COS-7 cells
T1 construct: expressed in transfected cells; host or cells: COS-7
Text: (§1) To create KDELR1-GFP and KDELR2-GFP, the reading frames for Homo sapiens KDELR1 (Uniprot: P24390) and KDELR2 (Uniprot: P33947) were cloned into the pEF5/FRT low level mammalian expression vector with a C-terminal 20 amino acid linker made up of 5 copies of Gly-Ser-Ser-Ser followed by GFP. Specific point mutations were introduced using the Quickchange protocol (Stratagene) and are described in the key resources table and figures. To create the mScarlet-KDEL^sec ligand construct, mScarlet with an N-terminal hGH signal peptide and the 16 C-terminal residues of human BiP at its C-terminus, containing the KDEL signal, was cloned into the pcDNA3.1 vector. […] The Golgi marker protein TGN46 was detected by antibody (sheep anti-TGN46 AHP500G; AbD Serotec) and an Alexa 647 conjugated secondary anti-sheep secondary (A-21448, Invitrogen). In Figure 1d and e, endogenous KDELR was detected by antibody (mouse anti-KDELR ADI-VAA-PT048; Enzo Life Sciences) and Alexa 488 conjugated anti-mouse secondary antibody (A-21202, Invitrogen). For retrieval assays in other figures, KDELR-GFP fusion proteins were directly detected by fluorescence. The mScarlet-xDEL fusion proteins were directly detected by fluorescence. […] The fraction of KDEL receptor in the Golgi apparatus was calculated by dividing the Golgi signal by the total cell signal. […]

human KDELR1 E117A = molecular target: T2, human KDELR1 E117A (Homo sapiens, UniProt P24390, E117A); test: ER retrieval assay, KDELR1 E117A-GFP; assay type: cell-based; settings: COS-7 cells
T2 construct: expressed in transfected cells; host or cells: COS-7
T2 sequence (P24390 whole entry E117A): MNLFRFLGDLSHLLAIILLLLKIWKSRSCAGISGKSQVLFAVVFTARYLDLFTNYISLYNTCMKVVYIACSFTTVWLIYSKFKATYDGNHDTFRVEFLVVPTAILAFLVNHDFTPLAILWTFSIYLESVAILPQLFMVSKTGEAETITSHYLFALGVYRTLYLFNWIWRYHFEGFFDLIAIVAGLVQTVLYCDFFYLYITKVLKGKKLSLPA
Text: as §1

T1 sequence (P24390 whole entry D50N/E117Q): as the sequence (P24390 whole entry E117A) above, with D50N, A117Q counted along it

- ligand-induced receptor retrieval to the ER (in words) (human KDELR1 E117A): relocated to the ER
Substance: ADEL [pcDNA3.1 hGHss-mScarlet-H. sapiens BiP639-654K651A (ADEL^SEC), secreted mScarlet fusion with human BiP C-terminus, ADEL signal]
- ligand-induced receptor retrieval to the ER (in words) (human KDELR1 D50N/E117Q): switched specificity towards ADEL and DDEL

Source: PMC8248988, “A signal capture and proofreading mechanism for the KDEL-receptor explains selectivity and dynamic range in ER retrieval” (eLife, 2021)
